The values that follow come from patent US7671054B1, “Reverse-turn mimetics and method relating thereto” (Choongwae Pharma Corporation, priority 2001, dated 2010).

In brackets after ≈: the same amount, converted by molar mass. Entries after “also recorded” stand apart in the source; their conditions may differ.

In general, GI50 refers to the concentration giving 50% growth inhibition.

What all share (type): cell-based
A short description of data set [1]: Sulforhodamine B (SRB) assay. The note with it: human, 293 cells (renal), 293, Renal, read-out: GI50 (SRB in vitro cytotoxicity). How it is done: (§1) Growth inhibitory effect of Compound A on the cells listed below was measured by the sulforhodamine B assay. SW480 cells in 100 μl media were plated in each well of 96-well plate and allowed to attach for 24 hours. Compound A was added to the wells to produce the desired final concentrations, and the plates were incubated at 37° C. for 48 hours. The cells were then fixed by gentle addition of 100 μl of cold (4° C.) 10% trichloroacetic acid to each well, followed by incubation at 4° C. for 1 hour. Plates were washed with deionized water five times and allowed to air dry. The cells were then stained by addition of 100 μl SRB solution (0.4% SRB(w/v) in 1% acetic acid (v/v)) to wells for 15 min. After staining, the plates were quickly washed five times with 1% acetic acid to remove any unbound dye, and allowed to air dry. Bound dye was solubilized with 10 mmol/L Tris base (pH 10.5) prior to reading the plates. The optical density (OD) was read on a plate reader at a wavelength of 515 nm with Molecular Device. Inhibition of growth was expressed as relative viability (% of control) and GI50 was calculated from concentration-response curves after log/probit transformation.
Background: The SRB assay estimates cell density from bound dye.

Another data set has as its system 786-0. In words: Sulforhodamine B (SRB) assay. The note with it: Homo sapiens; 786-0, listed under Colon; 48 hours; read-out: GI50 (SRB in vitro cytotoxicity). How it is done:
as §1

A further data set has as its system A431. Description: Sulforhodamine B (SRB) assay. To be noted: Homo sapiens, A-431; A431, Melanoma; 48 hours; read-out: GI50 (SRB in vitro cytotoxicity). How it is done:
as §1

A further data set has as its system A549. Description: Sulforhodamine B (SRB) assay. The note with it: Homo sapiens; A549, Lung; 48 hours; read-out: GI50 (SRB in vitro cytotoxicity). The procedure: as §1
In a further data set the test system is CACO-2. Description: Sulforhodamine B (SRB) assay. The note with it: Homo sapiens; CACO-2, Colon; 48 hours; read-out: GI50 (SRB in vitro cytotoxicity). How it is done:
as §1

The subject of a further data set is G361. Description: Sulforhodamine B (SRB) assay. The note with it: Homo sapiens, G-361; G361, Melanoma; 48 hours; read-out: GI50 (SRB in vitro cytotoxicity). The procedure:
as §1

In another data set the test system is HMV-II. In words: Sulforhodamine B (SRB) assay. The note with it: Melanoma, 48 hours, read-out: GI50 (SRB in vitro cytotoxicity). How it is done: as §1
For another data set, the system named is HMV-I. Description: Sulforhodamine B (SRB) assay. The note with it: Melanoma, 48 hours, read-out: GI50 (SRB in vitro cytotoxicity). How it is done: as §1
The next data set relates to HT29. Description: Sulforhodamine B (SRB) assay. The note with it: Homo sapiens, HT-29; HT29, Colon; 48 hours; read-out: GI50 (SRB in vitro cytotoxicity). The procedure:
as §1

The next data set has as its system LOVO. Description: Sulforhodamine B (SRB) assay. The note with it: Homo sapiens, Colon, 48 hours, read-out: GI50 (SRB in vitro cytotoxicity). The procedure: as §1
Another data set concerns LOX-IMVI. Description: Sulforhodamine B (SRB) assay. To be noted: Homo sapiens, Melanoma, 48 hours, read-out: GI50 (SRB in vitro cytotoxicity). The procedure:
as §1

Another data set has as its system MCF7/ADR. Description: Sulforhodamine B (SRB) assay. To be noted: Homo sapiens, NCI/ADR-RES, Breast, 48 hours, read-out: GI50 (SRB in vitro cytotoxicity). The procedure: as §1
The test system of another data set is NCI H23. In words: Sulforhodamine B (SRB) assay. To be noted: Homo sapiens; NCI H23, Lung; 48 hours; read-out: GI50 (SRB in vitro cytotoxicity). How it is done:
as §1

For a further data set, the system named is RPM17951. In words: Sulforhodamine B (SRB) assay. To be noted: RPM17951, Melanoma; 48 hours; read-out: GI50 (SRB in vitro cytotoxicity). The procedure:
as §1

The next data set deals with SK-MEL-28. In words: Sulforhodamine B (SRB) assay. The note with it: Homo sapiens; SK-MEL-28, Melanoma; 48 hours; read-out: GI50 (SRB in vitro cytotoxicity). How it is done:
as §1

For another data set, the system named is SW480-CWP. Description: Sulforhodamine B (SRB) assay. The note with it: Colon, 48 hours, read-out: GI50 (SRB in vitro cytotoxicity). How it is done:
as §1

The next data set has as its system SW620. In words: Sulforhodamine B (SRB) assay. The note with it: Homo sapiens, SW-620; SW620, Colon; 48 hours; read-out: GI50 (SRB in vitro cytotoxicity). How it is done:
as §1

In the next data set the test system is T84. Description: Sulforhodamine B (SRB) assay. The note with it: Homo sapiens; T84, Colon; 48 hours; read-out: GI50 (SRB in vitro cytotoxicity). The procedure:
as §1

In the next data set the test system is UACC62. In words: Sulforhodamine B (SRB) assay. The note with it: Homo sapiens, UACC-62; UACC62, Melanoma; 48 hours; read-out: GI50 (SRB in vitro cytotoxicity). The procedure:
as §1

For data set [2], the system named is survivin promoter in SW480 cells. Description: Survivin luciferase reporter in SW480 cells. The note with it: SW480 cells; various concentrations. On the technique in general: A reporter such as luciferase makes a cellular process visible.

Turning to `O=c1[nH]cc(F)c(=O)[nH]1` [Compound 5-FU, 5-fluorouracil], the GI50 at 48 h in data set [1] came to 2.02 µg/mL (≈ 15.5 µM). Besides, the GI50 in the data set on 786-0 came to 0.584 µg/mL (≈ 4.49 µM); with A431, 0.404 µg/mL (≈ 3.11 µM); in the data set with A549, 1.01 µg/mL (≈ 7.74 µM); in the data set with CACO-2, 0.451 µg/mL (≈ 3.47 µM); with G361 it was 1.54 µg/mL (≈ 11.8 µM); in the data set with HMV-II, 0.695 µg/mL (≈ 5.34 µM). Also, the GI50 in the data set on HMV-I is 2.11 µg/mL (≈ 16.2 µM); in the data set with HT29 it was 5.33 µg/mL (≈ 41 µM); with LOVO, 1.03 µg/mL (≈ 7.91 µM); in the data set with LOX-IMVI it was greater than 10 µg/mL; in the data set on MCF7/ADR, greater than 10 µg/mL; with NCI H23, 2.25 µg/mL (≈ 17.3 µM). Besides, the GI50 is 0.92 µg/mL (≈ 7.07 µM) in the data set with RPM17951; greater than 10 µg/mL with SK-MEL-28; greater than 10 µg/mL in the data set on SW480-CWP; 5.57 µg/mL (≈ 42.8 µM) in the data set with SW620; 1.82 µg/mL (≈ 14 µM) in the data set with T84; 1.09 µg/mL (≈ 8.4 µM) with UACC62.

Consider `O=C1[C@H](Cc2ccc(O)cc2)N2C(=O)CCN(C(=O)NCc3ccccc3)[C@H]2CN1Cc1cccc2ccccc12` [Compound D], for which the “survivin luciferase reporter activity” value in [2] is “inhibit expression of survivin; also recorded: inhibit the activity of a survivin luciferase reporter”.
